Converted amounts (≈) assume the structure as drawn. Structures can show the parent of a compound that is named as a salt.
Experiments:
Experiment in all cases: Minimum inhibitory concentration test, agar dilution method (plate)
Format in all cases: cell-based
[1] = system: Serratia marcescens No. 1
Protocol: (§1) Antimicrobial test (i.e., minimum inhibitory concentration test) on compounds obtained according to this invention was conducted according to the Japan chemotherapy method, using Apalcillin (PC-904) for comparison purposes.
(§2) Minimum Inhibitory Concentration(γ/ml)
(§3) in Agar Dilution Method (Plate)

[2] = system: Pseudomonas capacia M-0501; conditions: M0501
Protocol: as §1, §2, §3

Escherichia coli GN206 = system: Escherichia coli GN206
Protocol: as §1, §2, §3

[3] = system: Pseudomonas maltophilia 602; conditions: Stenotrophomonas maltophilia
Protocol: as §1, §2, §3

Proteus vulgaris OX19 = system: Proteus vulgaris OX19
Protocol: as §1, §2, §3

[4] = system: Streptococcus faecalis ATCC6633; conditions: Enterococcus faecalis
Protocol: as §1, §2, §3

[5] = system: Staphylococcus aureus 209PJC-1; conditions: 209PJC1
Protocol: as §1, §2, §3

[6] = system: Staphylococcus aureus Smiths-424; conditions: SMITHS424
Protocol: as §1, §2, §3

[7] = system: Serratia species GN629 (CSase)
Protocol: as §1, §2, §3

Escherichia coli 255 = system: Escherichia coli 255
Protocol: as §1, §2, §3

[8] = system: Klebsiella pneumoniae GN69
Protocol: as §1, §2, §3

[9] = system: Pseudomonas aeruginosa E-2; conditions: E2
Protocol: as §1, §2, §3

[10] = system: Citrobacter freundii GN346 (CSase)
Protocol: as §1, §2, §3

[11] = system: Proteus morganii 1510 (CSase); conditions: Morganella morganii
Protocol: as §1, §2, §3

[12] = system: Pseudomonas cepacia M-0513; conditions: Burkholderia cepacia, M0513
Protocol: as §1, §2, §3

[13] = system: Pseudomonas aeruginosa M-0002; conditions: M0002
Protocol: as §1, §2, §3

| MIC [1] [µg/mL] | MIC [2] [µg/mL] | MIC (Escherichia coli GN206) [µg/mL] | MIC [3] [µg/mL] | MIC (Proteus vulgaris OX19) [µg/mL] | MIC [4] [µg/mL] | MIC [5] [µg/mL] | MIC [6] [µg/mL] | MIC [7] [µg/mL] | MIC (Escherichia coli 255) [µg/mL] | MIC [8] [µg/mL] | MIC [9] [µg/mL] | MIC [10] [µg/mL] | MIC [11] [µg/mL] | MIC [12] [µg/mL] | MIC [13] [µg/mL] | Structure (SMILES) |
| --- | --- | --- | --- | --- | --- | --- | --- | --- | --- | --- | --- | --- | --- | --- | --- | --- |
| 0.78 | 12.5 | 3.13 | 12.5 | 0.39 | 3.13 | 0.39 | 0.39 | 6.25 | 12.5 | 25 | 3.13 | 6.25 | 100 | 12.5 | 0.78 | COc1ccc(-c2ccc(C(=O)N[C@@H](C(=O)N[C@@H]3C(=O)N4[C@@H]3SC(C)(C)[C@@H]4C(=O)O)c3ccc(O)cc3)c(=O)[nH]2)cc1OC [Example 1, sodium salt of 6-(3,4-dimethoxyphenyl)-1,2-dihydro-2-oxonicotinylamoxycillin] |
| 1.56 (≈ 2.99 µM) | 12.5 (≈ 24 µM) | 25 (≈ 47.9 µM) | 50 (≈ 95.9 µM) | 0.39 (≈ 0.748 µM) | 6.25 (≈ 12 µM) | 0.39 (≈ 0.748 µM) | 0.39 (≈ 0.748 µM) | 25 (≈ 47.9 µM) | 50 (≈ 95.9 µM) | 50 (≈ 95.9 µM) | 1.56 (≈ 2.99 µM) | 12.5 (≈ 24 µM) | 100 (≈ 192 µM) | 25 (≈ 47.9 µM) | 0.78 (≈ 1.5 µM) | CC1(C)S[C@@H]2[C@H](NC(=O)[C@H](NC(=O)c3cnc4cccnc4c3O)c3ccccc3)C(=O)N2[C@H]1C(=O)O [PC-904, reference compound] |
| 1.56 (≈ 2.06 µM) | 3.13 (≈ 4.12 µM) | 1.56 (≈ 2.06 µM) | 25 (≈ 32.9 µM) | 0.39 (≈ 0.514 µM) | 3.13 (≈ 4.12 µM) | 0.39 (≈ 0.514 µM) | 0.2 (≈ 0.264 µM) | 6.25 (≈ 8.24 µM) | 6.25 (≈ 8.24 µM) | 25 (≈ 32.9 µM) | 6.25 (≈ 8.24 µM) | 1.56 (≈ 2.06 µM) | 50 (≈ 65.9 µM) | 3.13 (≈ 4.12 µM) | 3.13 (≈ 4.12 µM) | COc1ccc(COc2ccc(-c3ccc(C(=O)N[C@@H](C(=O)N[C@@H]4C(=O)N5[C@@H]4SC(C)(C)[C@@H]5C(=O)O)c4ccc(O)cc4)c(=O)[nH]3)cc2OC)cc1OC [Example 3, 6-[4-(3,4-dimethoxybenzyloxy)-3-methoxyphenyl]-1,2-dihydro-2-oxonicotinyl amoxycillin] |
